Data: patent EP0061882A1, “Process for preparing isoxazol-3-ylcarboxamides” (ELI LILLY AND COMPANY, priority 1981, dated 1982)

Assays:
Assay in all cases: broad spectrum greenhouse test, postemergence application
Assay type in all cases: in vivo
Settings in all cases: rated about 10-13 days after application, scale 1-5
[1] = system: Barnyard Grass
Excerpt: (§1) A broad spectrum greenhouse test was run to show the activity of the acyloxadiazoles of formula III.
(§2) Square plastic pots were filled with a sterilized sandy loam soil and were planted to seeds of the various crops and weeds. Each pot was indi- viduall^y fertilized.
(§3) Test compounds of formula III were applied postemergence to some pots and preemergence to others. Postemergence applications of the compounds were sprayed over the emerged plants about 12 days after the seeds were planted. Preemergence applications were sprayed on the soil the day after the seeds were planted.
(§4) Each test compound was dissolved in 1:1 acetone:ethanol at the rate of 2 g. per 100 ml. The solution also contained about 2 g. per 100 ml. of an anionic-nonionic surfactant blend. One ml. of the solution was diluted with deionized water to obtain the dilution desired. The.appropriate amount of the solution was applied to each pot.
(§5) After the compounds were applied, the pots were moved to the greenhouse, watered as necessary, and observed and rated about 10-13 days after application of the compounds. Untreated control plants were used as standards in every test.

[2] = system: Wild Oat
Excerpt: as §1, §2, §3, §4, §5

[3] = system: Large Crabgrass; parameters: key: 1 = normal plants; 5 = dead plants or no emergence
Excerpt: as §1, §2, §3, §4, §5

[4] = system: Foxtail; parameters: key: 1 = normal plants; 5 = dead plants or no emergence
Excerpt: as §1, §2, §3, §4, §5

[5] = system: Morningglory; parameters: key: 1 = normal plants; 5 = dead plants or no emergence
Excerpt: as §1, §2, §3, §4, §5

[6] = system: Mustard; parameters: key: 1 = normal plants; 5 = dead plants or no emergence
Excerpt: as §1, §2, §3, §4, §5

[7] = system: Tomato; parameters: key: 1 = normal plants; 5 = dead plants or no emergence
Excerpt: as §1, §2, §3, §4, §5

[8] = system: Pigweed; parameters: key: 1 = normal plants; 5 = dead plants or no emergence
Excerpt: as §1, §2, §3, §4, §5

[9] = system: Velvetleaf; parameters: key: 1 = normal plants; 5 = dead plants or no emergence
Excerpt: as §1, §2, §3, §4, §5

[10] = system: Zinnia; parameters: key: 1 = normal plants; 5 = dead plants or no emergence
Excerpt: as §1, §2, §3, §4, §5

## CN(C)c1nc(CC(=O)C(C)(C)C)no1 [5-dimethylamino-3-(2,2-dimethylpropionyl-methyl)-1,2,4-oxadiazole]
[1]; Rate of Appln. 1 lbs./acre
  Postemergence rating, Barnyard Grass: 4
[1]; Rate of Appln. 2 lbs./acre
  Postemergence rating, Barnyard Grass: 4
[1]; Rate of Appln. 4 lbs./acre
  Postemergence rating, Barnyard Grass: 4
[2]; Rate of Appln. 1 lbs./acre
  Postemergence rating, Wild Oat: 2
[2]; Rate of Appln. 2 lbs./acre
  Postemergence rating, Wild Oat: 3
[2]; Rate of Appln. 4 lbs./acre
  Postemergence rating, Wild Oat: 4
[3]; Rate of Appln. 1 lbs./acre
  Postemergence rating, Large Crabgrass: 5
[3]; Rate of Appln. 2 lbs./acre
  Postemergence rating, Large Crabgrass: 5
[3]; Rate of Appln. 4 lbs./acre
  Postemergence rating, Large Crabgrass: 5
[4]; Rate of Appln. 1 lbs./acre
  Postemergence rating, Foxtail: 4
[4]; Rate of Appln. 2 lbs./acre
  Postemergence rating, Foxtail: 5
[4]; Rate of Appln. 4 lbs./acre
  Postemergence rating, Foxtail: 5
[5]; Rate of Appln. 1 lbs./acre
  Postemergence rating, Morningglory: 2
[5]; Rate of Appln. 2 lbs./acre
  Postemergence rating, Morningglory: 5
[5]; Rate of Appln. 4 lbs./acre
  Postemergence rating, Morningglory: 4
[6]; Rate of Appln. 1 lbs./acre
  Postemergence rating, Mustard: 5
[6]; Rate of Appln. 2 lbs./acre
  Postemergence rating, Mustard: 4
[6]; Rate of Appln. 4 lbs./acre
  Postemergence rating, Mustard: 5
[7]; Rate of Appln. 1 lbs./acre
  Postemergence rating, Tomato: 3
[7]; Rate of Appln. 2 lbs./acre
  Postemergence rating, Tomato: 5
[7]; Rate of Appln. 4 lbs./acre
  Postemergence rating, Tomato: 5
[8]; Rate of Appln. 1 lbs./acre
  Postemergence rating, Pigweed: 5
[8]; Rate of Appln. 2 lbs./acre
  Postemergence rating, Pigweed: 5
[8]; Rate of Appln. 4 lbs./acre
  Postemergence rating, Pigweed: 5
[9]; Rate of Appln. 1 lbs./acre
  Postemergence rating, Velvetleaf: 5
[9]; Rate of Appln. 2 lbs./acre
  Postemergence rating, Velvetleaf: 5
[9]; Rate of Appln. 4 lbs./acre
  Postemergence rating, Velvetleaf: 5
[10]; Rate of Appln. 1 lbs./acre
  Postemergence rating, Zinnia: 5
[10]; Rate of Appln. 2 lbs./acre
  Postemergence rating, Zinnia: 5
[10]; Rate of Appln. 4 lbs./acre
  Postemergence rating, Zinnia: 5
